Test results from PubChem BioAssay (NCI).
Several values for one entry are separate records, joined by “and”; a condition that tells them apart may be missing. Equal values may be shown once.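 The compound was tested at five concentrations on cells cultured in 96-well plates, with a 48-hour exposure period. GI50 marks 50% less growth. TGI is the concentration that stops growth completely.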

Test system: MDA-MB-468 breast
Assay: NCI-60 cell line screen, 48 h

| Compound | GI50 | TGI |
| --- | --- | --- |
| O=C1Nc2cc(-c3ccc(O)cc3)ccc2/C1=C/c1ccc[nH]1 | 123 nM | 756 nM |
| CC[C@H](C)C(=O)O[C@H]1C[C@@H](C)C=C2C=C[C@H](C)[C@H](CC[C@@H]3C[C@@H](O)CC(=O)O3)[C@H]21 | 2030 nM and 2840 nM | 14600 nM and 14800 nM |
| CN1CCN(c2ccc(NC(=O)c3cncnc3Nc3ccc4c(ccn4Cc4cccc(F)c4)c3)cc2)CC1 | 1910 nM | 6920 nM |
| Nc1n[nH]c2cc(F)c([C@@H]3Nc4c(F)cc5[nH]ncc5c4[C@H]4C5CCC(C5)[C@@H]34)cc12 (some centres not stated) | 86 nM | 250 nM |
| Cc1ccc(Nn2c(SCC(=O)Nc3nc(-c4ccccc4)cs3)nc(C)c2C)cc1 | 1700 nM | 6670 nM |
| CSc1ccc(/C(=N/N=C(N)N)c2ccc(Cl)cc2)cc1 | 369 nM | 1500 nM |
| Nc1nc(N)c2cc(S(=O)(=O)c3ccccc3)ccc2n1 | 8010 nM | > 100000 nM |
| CC(=O)OCCC/C(=C/c1cc2ccccc2c2ccccc12)[N+](=O)[O-] | 291 nM | 1060 nM |
| CCN(CC)CCOc1ccccc1-n1c(C)ccc1-c1ccccc1 | 10000 nM | 24400 nM |
| O=C1CCCc2cc3c(cc21)CC1(C3)Cc2cc3c(cc2C1)C(=O)CCC3 | 2920 nM | 62700 nM |
| C=C(C)[C@@H]1CC[C@]2(COC(=O)c3ccccc3C(=O)O)CC[C@]3(C)[C@H](CC[C@@H]4[C@@]5(C)CC[C@H](OC(=O)c6ccccc6C(=O)O)C(C)(C)[C@@H]5CC[C@]43C)[C@@H]12 | 29800 nM | > 100000 nM |
| Cc1nc2sc(C(=O)Nc3cccc(Cl)c3C)c(N)c2cc1C(O)c1ccccc1 (configuration not stated) | 38.8 nM | 16900 nM |
| CN1CCC(n2cnc(-c3ccc(F)cc3)c2-c2ccnc(Nc3ccccc3)n2)CC1 | 3030 nM | 10400 nM |
| CS(=O)(=O)Nc1cccc(-c2ccc3ncnc(Nc4cncc(Cl)c4)c3c2)c1 | 133 nM | 550 nM |
| O=C(Oc1c(Cl)c(Cl)c(Cl)c(Cl)c1Cl)C1CCCN1C(=O)OCc1ccccc1 (configuration not stated) | 2900 nM | 12600 nM |
| CCC1C[N+]2=C(c3cc(OC)c(OC)cc3CC2)c2c1cc1n2CCc2cc(OC)c(OC)cc2-1 (configuration not stated) | 402 nM | 5490 nM |
| NCCNc1nc2ccc(F)cc2c2c(=O)c3cc(F)ccc3sc12 | 1790 nM | 3340 nM |
| CCCCCCNC(=O)Oc1ccc(/C(=C(/C)c2ccccc2)c2ccc(OCCN3CCCCCC3)cc2)cc1 | 4900 nM | 19500 nM |
| Cc1cc(O)cc(-c2nn(C)cc2-c2cc(N3CCOCC3)nc(-c3cccnc3)n2)c1 | 1310 nM | 5630 nM |
| CCN1C(=O)N[C@H]2[C@@H]3NC(=O)c4ccc(Cl)n4[C@@H]3C[C@]21O | 229 nM | 1080 nM |
| NC1=C(/C(N)=N/O)C(c2ccccc2)c2ccc3ccccc3c2O1 (configuration not stated) | 2130 nM | > 60000 nM |
| COC(=O)C[C@@H]1CC=CC(=O)/C1=C(O)/C=C/c1ccccc1 | 666 nM | 2150 nM |
| COc1ccc(-c2cncn2-c2ccc(-c3nc4cc(OC)c(OC)c(OC)c4s3)cc2)cc1N | 8600 nM | > 100000 nM |
| O=c1[nH]c(=O)n(C2CC(O)C(CO)O2)cc1F (configuration not stated) | 250 nM | 20600 nM |

| Compound | GI50 | TGI |
| --- | --- | --- |
| CCc1cccc2c3c(sc12)C(c1ccc(OC)cc1)C(C#N)=C(/N=C/c1ccc(Cl)cc1)O3 (configuration not stated) | 1930 nM | 6680 nM |
| COC(=O)[C@]12CC[C@@H](C)[C@H](C)[C@@H]1C1=CC[C@@H]3[C@@]4(C)C(C=O)=C[C@@](C)(COC(=O)c5ccco5)C4=CC[C@@]3(C)[C@]1(C)CC2 | 54.2 nM | 1940 nM |
| O=C(N/N=C\c1ccc([N+](=O)[O-])cc1)c1ccc2nc(-c3ccc(Br)cc3)[nH]c2c1 | 856 nM | 2060 nM |
| COc1ccc(C(=O)c2cc(C)c(OC)c(C)c2)c(OC)c1OC(=O)C(Cl)Cl | 398 nM |  |
| COc1ccc2cn3c4ccc(O)cc4[nH]c(=O)c3c2c1 | 195 nM | 678 nM |
| CCN1Cc2c(/C=C/c3ccccc3)nc3ccc(OC)cc3c2N(c2cccc(Cl)c2)C1 | 1900 nM | 3670 nM |
| Nc1ncc(-c2ccc3ncnc(N4CCc5cc(F)c(F)cc54)c3c2)cn1 | 1890 nM | 7790 nM |
| CC1(C)CC(C(=O)OCCCCCCCCCCC[P+](c2ccccc2)(c2ccccc2)c2ccccc2)C(C)(C)N1O (configuration not stated) | 87.5 nM | 637 nM |
| COC(=O)C(Br)(C(=O)OC)C(Br)C(Br)C(Br)c1ccccc1 (configuration not stated) | 1650 nM | 3530 nM |
| N#CC1=C(N)Oc2c(ccc3cccnc23)C1c1ccccc1 (configuration not stated) | 270 nM | 916 nM |
| Fc1cccc(-c2nc(-c3c[nH]c4ncccc34)cs2)c1 | > 100000 nM | > 100000 nM |
| CCCCc1n(Cc2ccc3ccccc3n2)cc[n+]1Cc1ccc2ccccc2c1 | 216 nM | 903 nM |
| COc1ccc2c(ccc3oc([N+](=O)[O-])cc32)c1 | 121 nM | 338 nM |
| O=C(Cc1ccc(-c2ccc(OCCN3CCOCC3)cc2)cn1)NCc1ccccc1 | 24.6 nM | > 3570 nM |
| COc1cc(NC(=O)c2cc3ccccc3cc2O)c(OC)cc1Cl | 2510 nM | 8110 nM |
| CCN(CC)CCC(CNc1c(C)cnc2cc(Cl)ccc12)c1ccc(Cl)c(Cl)c1 (configuration not stated) | 2060 nM | 4640 nM |
| C=CC(=O)N1CCC(CNc2ncnc(N)c2-c2ccc(Oc3ccccc3)cc2)CC1 | 7290 nM | 55700 nM |
| O=C(C[n+]1ccn(CC(OCc2ccc(Cl)cc2Cl)c2ccc(Cl)cc2Cl)c1)c1ccc(F)cc1 (configuration not stated) | 732 nM | 2200 nM |
| COc1ncc(-c2ccc3ncnc(Nc4cccc(Cl)c4)c3c2)cc1NS(C)(=O)=O | 211 nM | 913 nM |
| NC1=CC(=O)C(=O)c2ccccc21 | 13200 nM | 28500 nM |
| COc1ccc(/C=N/C2=NNC(C)(c3ccccc3O)N2C(Cc2c[nH]c3ccccc23)C(=O)O)cc1 (configuration not stated) | 2210 nM | 7340 nM |
| COc1ccc(/C=C2/C(=O)N(/C=C3\C(=O)Oc4ccccc4C3=O)C(=NC(C)=O)N2C)cc1OC | > 100000 nM | > 100000 nM |
| COc1ccc(-n2nc(C(=O)NCC(=O)Nc3nc4cc(OC)ccc4s3)c3ccccc3c2=O)cc1 | 846 nM |  |
